Where two headings read alike, the source gives them in different places.
Tests used:
sphincter of Oddi [1] = experiment: Sphincter of Oddi perfusion pressure after intravenous administration to a dog (literature); assay type: in vivo
Procedure: Further, gabexate mesilate reduces the sphincter of Oddi perfusion pressure by 6.9 mmH2O (corresponds to 0.51 mmHg) or 10.6 mmH2O (corresponds to 0.78 mmHg) when it is intravenously administered to a dog at a dose of 1 mg/kg or 3 mg/kg, respectively (Yamasato T. et al., J Smooth Muscle Res., 27, 87 (1991). Since oxapium iodide is usually orally administered at a dose of 30 to 60 mg per adult per day dividedly in 3 times, and 100 mg of gabexate mesilate is usually dissolved in 500 mL of Ringer's solution and the resulting solution is administered by intravenous drip infusion at a rate of not more than 8 mL/minute, the above-described doses are considered to be equivalent to the clinical doses of those drugs.

sphincter of Oddi [2] = settings: dog, intravenous, cited from earlier work
sphincter of Oddi [3] = settings: literature reports; cited from earlier work
sphincter of Oddi [4] = settings: animal experiments, high doses; cited from earlier work
biliary tract = settings: nalbuphine not statistically significant; butorphanol statistically significant; cited from earlier work
sphincter of Oddi [5] = experiment: Rabbit model for contraction of sphincter of Oddi (perfusion pressure in sphincter of Oddi); assay type: in vivo
Procedure: The method described in Wei J G et al., World J. Gastroenterol., 6, 102 (2000) was partially modified and used for measurement of a change in the perfusion pressure in sphincter of Oddi. The change in the perfusion pressure reflects the motility of a contractive change of sphincter of Oddi.
Male NZW rabbits (Japan SLC) which had body weights of 2.0 to 2.5 kg upon delivery were fasted from the evening of the day before the experiment. The experiment was carried out under anesthesia with pentobarbital, with artificial ventilation. Each rabbit was immobilized in the supine position and subjected to abdominal incision to expose the periduodenal area and the common bile duct. A small incision was made in the common bile duct, and a cannula was inserted into the common bile duct toward the duodenum side, followed by indwelling its tip in sphincter of Oddi (sphincter ampullae). For biliary excretion, another cannula was inserted into the bile duct toward the gallbladder side and immobilized. From the other end of the cannula whose tip was indwelled in the sphincter of Oddi, physiological saline was continuously injected at a flow rate of 6 mL/hour to allow perfusion in the sphincter of Oddi. By recording the perfusion pressure with a blood pressure monitoring transducer (DX-300, Nihon Kohden Corporation), the contraction reaction of sphincter of Oddi was measured.
To the rabbit, 5% aqueous mannitol solution, which is the vehicle for the Compound 1 solution, was administered via the jugular vein. Further, not less than 30 minutes after the administration of the vehicle, Compound 1 was administered to the same individual at a dose of 0.2 μg/kg via the jugular vein. The administration volume of the vehicle and Compound 1 was 1 mL/kg, and the administration was carried out for 60 seconds.
Thus, in the Compound 1-administered group, the rate of change in the maximum perfusion pressure was lower compared to the vehicle-administered group, and this difference was significant (*p<0.05, paired t-test).

CCOC(=O)c1ccc(OC(=O)CCCCCNC(=N)N)cc1 [gabexate mesilate]
reduction of the sphincter of Oddi perfusion pressure (converted) (sphincter of Oddi [1]; 1 mg/kg): 0.51 mmHg | reduction of the sphincter of Oddi perfusion pressure (converted) (sphincter of Oddi [1]; 3 mg/kg): 0.78 mmHg | reduction of the sphincter of Oddi perfusion pressure (sphincter of Oddi [2]; 1 mg/kg (Yamasato T. et al. 1991)): 6.9 mmH2O | reduction of the sphincter of Oddi perfusion pressure (sphincter of Oddi [2]; 3 mg/kg (Yamasato T. et al. 1991)): 10.6 mmH2O

Oc1ccc2c3c1O[C@H]1[C@@H](O)CC[C@@]4(O)[C@@H](C2)N(CC2CCC2)CC[C@]314 [nalbuphine]
action on contraction of sphincter of Oddi (sphincter of Oddi [3]): does not exert any action on contraction of sphincter of Oddi

methionine enkephalin
action on contraction of sphincter of Oddi (sphincter of Oddi [3]): cause transient contraction of sphincter of Oddi, followed by showing a continuous contraction inhibition action

C=CCN1CC[C@]23c4c5ccc(O)c4O[C@H]2C(=O)CC[C@@]3(O)[C@H]1C5 [naloxone]
action on contraction of sphincter of Oddi (sphincter of Oddi [3]): have an action to inhibit contraction of sphincter of Oddi

COc1cccc(C2(O)CCCCC2CN(C)C)c1 (stereo not drawn) [tramadol]
contraction of sphincter of Oddi (sphincter of Oddi [4]): causes contraction of sphincter of Oddi

CN1CC[C@]2(C)C[C@@H](Cc3ccc(O)cc32)C1 [eptazocine]
contraction of sphincter of Oddi (sphincter of Oddi [4]): shows an action to cause contraction of sphincter of Oddi

Oc1ccc2c(c1)[C@@]13CCCC[C@@]1(O)[C@@H](C2)N(CC1CCC1)CC3 [butorphanol]
increase of the inner pressure of biliary tract (biliary tract): 12%

CN(C(=O)/C=C/c1ccoc1)[C@@H]1CC[C@@]2(O)[C@H]3Cc4ccc(O)c5c4[C@@]2(CCN3CC2CC2)[C@H]1O5.Cl [Compound 1, (−)-17-(cyclopropylmethyl)-3,14β-dihydroxy-4,5α-epoxy-6β-[N-methyl-trans-3-(3-furyl)acrylamido]morphinan hydrochloride]
reduction of the actual value of the maximum perfusion pressure (sphincter of Oddi [5]; 0.2 μg/kg intravenous to rabbits, on average): 0.95 mmHg | action on contraction of sphincter of Oddi (conclusion in words) (sphincter of Oddi [5]; 0.2 μg/kg intravenous, rabbit): has an action to inhibit contraction of sphincter of Oddi | rate of change in the maximum perfusion pressure (Oddi muscle contraction (Delta %)) (sphincter of Oddi [5]; 0.2 μg/kg intravenous, 3 minutes after vs 3 minutes before beginning of administration, mean, N=11, vehicle 99.81%, p<0.05): 93.32%

C[N+]1(CC2COC(c3ccccc3)(C3CCCCC3)O2)CCCCC1 (stereo not drawn) [Oxapium iodide]
reduction of the sphincter of Oddi perfusion pressure (converted) (sphincter of Oddi [1]; 0.3 mg/kg): 0.74 mmHg | reduction of the sphincter of Oddi perfusion pressure (sphincter of Oddi [2]; 0.3 mg/kg (Tamasawa Y. et al. 1972)): about 10 mmH2O

From patent US10131672B2, “Therapeutic or prophylactic agent for biliary diseases” (Toray Industries, Inc., priority 2010, dated 2018)
